This assay addresses recombinant DYRK1A kinase (Homo sapiens, UniProt Q13627). Briefly: DYRK1A kinase assay (Ser/Thr 18 peptide Z-lyte FRET). In kind it is biochemical. The settings on record: DYRK1A kinase activity; 15 μM ATP, 4 μM Ser/Thr peptide 18, one hour at room temperature. Here is the method:
Representative compounds were screened using the assay procedure for DYRK1A kinase activity as described below.
Each compound was dissolved in DMSO as a 10 mM stock and used to prepare compound source plates. Serial dilution (1:3, 11-point dose-response curves from 10 μM to 0.00016 μM) and compound transfer was performed using the ECHO 550 (Labcyte, Sunnyvale, Calif.) into 1536-well black-walled round bottom plates (Corning).
The DYRK1A kinase assay was run using the Ser/Thr 18 peptide Z-lyte assay kit according to manufacturer's instructions (Life Technologies—a Division of Thermo-Fisher). This is a non-radioactive assay using fluorescence resonance energy transfer (FRET) between coumarin and fluorescein to detect kinase activity which is represented as a ratio of coumarin emission/fluorescein emission.
Briefly, recombinant DYRK1A kinase, ATP and Ser/Thr peptide 18 were prepared in 1× Kinase buffer to final concentrations of 0.25 μg/mL, 15 μM, and 4 μM respectively. The mixture was allowed to incubate with the representative compounds for one hour at room temperature. All reactions were performed in duplicate. Unphosphorylated (“0% Control”) and phosphorylated (“100% control”) forms of Ser/Thr 18 served as control reactions. Additionally, an 11-point dose-response curve of Staurosporine (1 uM top) was run to serve as a positive compound control.
After incubation, Development Reagent A was diluted in Development Buffer then added to the reaction and allowed to further incubate for one hour at room temperature. The plate was read at Ex 400 Em 455 to detect the coumarin signal and Ex 400 Em 520 to measure the signal (EnVision Multilabel Plate Reader, PerkinElmer).
The Emission ratio (Em) was calculated as a ratio of the coumarin (C) emission signal (at 445 nm)/Fluorescein (F) emission signal (at 520 nm). The percent phosphorylation was then calculated using the following formula: [1−((Em ratio×F100%)−C100%)/((C0%−C100%)+(Em ratio×(F100%−F0%)))]. Dose-response curves were generated, and inhibitory concentration (IC50) values were calculated using non-linear regression curve fit in the Dotmatics' Studies Software (Bishops Stortford, UK).

The structures appear in SMILES notation.

Data on 34 compounds can be found in patent US20230192686A1, “1H-PYRROLO[2,3-B]PYRIDINES AND PREPARATION AND USES THEREOF” (BioSplice Therapeutics, Inc., priority 2021, published 2023).

As for `COCCN1CCC(NC(=O)c2cnn3ccc(-c4c[nH]c5ncccc45)cc23)CC1` [Compound 50, N-(1-(2-Methoxyethyl)piperidin-4-yl)-5-(1H-pyrrolo[2,3-b]pyridin-3-yl)pyrazolo[1,5-a]pyridine-3-carboxamide], the EC50 is 1 nM. The result for `O=C(NC1CCN(Cc2ccccn2)CC1)c1cnn2ccc(-c3c[nH]c4ncccc34)cc12` [Compound 51, N-(1-(Pyridin-2-ylmethyl)piperidin-4-yl)-5-(1H-pyrrolo[2,3-b]pyridin-3-yl)pyrazolo[1,5-a]pyridine-3-carboxamide] reads 1 nM; that for `O=C(Nc1cccnc1)c1cnn2ccc(-c3c[nH]c4ncccc34)cc12` [Compound 52, N-(Pyridin-3-yl)-5-(1H-pyrrolo[2,3-b]pyridin-3-yl)pyrazolo[1,5-a]pyridine-3-carboxamide], 2 nM; that for `O=C(c1cnn2ccc(-c3c[nH]c4ncccc34)cc12)N1CCCCC1` [Compound 53, (5-(1H-Pyrrolo[2,3-b]pyridin-3-yl)pyrazolo[1,5-a]pyridin-3-yl) (piperidin-1-yl)methanone], 7 nM. As for `CN1CCN(C2CCN(C(=O)c3cnn4ccc(-c5c[nH]c6ncccc56)cc34)CC2)CC1` [Compound 54, (5-(1H-Pyrrolo[2,3-b]pyridin-3-yl)pyrazolo[1,5-a]pyridin-3-yl)(4-(4-methylpiperazin-1-yl)piperidin-1-yl)methanone], the EC50 amounted to 18 nM. As for `CN1CCN(C(=O)c2cnn3ccc(-c4c[nH]c5ncccc45)cc23)CC1` [Compound 55, (5-(1H-Pyrrolo[2,3-b]pyridin-3-yl)pyrazolo[1,5-a]pyridin-3-yl)(4-methylpiperazin-1-yl)methanone], the figure is 4 nM; as for `O=C(c1cnn2ccc(-c3c[nH]c4ncccc34)cc12)N1CCN(C2CC2)CC1` [Compound 56, (5-(1H-Pyrrolo[2,3-b]pyridin-3-yl)pyrazolo[1,5-a]pyridin-3-yl)(4-cyclopropylpiperazin-1-yl)methanone], 7 nM; as for `O=C(c1cnn2ccc(-c3c[nH]c4ncccc34)cc12)N1CCNC2(CC2)C1` [Compound 57, (5-(1H-Pyrrolo[2,3-b]pyridin-3-yl)pyrazolo[1,5-a]pyridin-3-yl)(4,7-diazaspiro[2.5]octan-7-yl)methanone], 3 nM. As for `CN1C2CCC1CN(C(=O)c1cnn3ccc(-c4c[nH]c5ncccc45)cc13)C2` [Compound 58, (5-(1H-Pyrrolo[2,3-b]pyridin-3-yl)pyrazolo[1,5-a]pyridin-3-yl)(8-methyl-3,8-diazabicyclo[3.2.1]octan-3-yl)methanone], the figure is 12 nM; as for `CN1CC2CCC(C1)N2C(=O)c1cnn2ccc(-c3c[nH]c4ncccc34)cc12` [Compound 59, (5-(1H-Pyrrolo[2,3-b]pyridin-3-yl)pyrazolo[1,5-a]pyridin-3-yl)(3-methyl-3,8-diazabicyclo[3.2.1]octan-8-yl)methanone], 81 nM; as for `O=C(c1cnn2ccc(-c3c[nH]c4ncccc34)cc12)N1CCOCC1` [Compound 60, (5-(1H-Pyrrolo[2,3-b]pyridin-3-yl)pyrazolo[1,5-a]pyridin-3-yl) (morpholino)methanone], 6 nM. On to `O=C(c1cnn2ccc(-c3c[nH]c4ncccc34)cc12)N1CC2(CNC2)C1` [Compound 61, (5-(1H-Pyrrolo[2,3-b]pyridin-3-yl)pyrazolo[1,5-a]pyridin-3-yl)(2,6-diazaspiro[3.3]heptan-2-yl)methanone], for which the EC50 worked out at 4 nM. As for `CN1CC2(C1)CN(C(=O)c1cnn3ccc(-c4c[nH]c5ncccc45)cc13)C2` [Compound 62, (5-(1H-Pyrrolo[2,3-b]pyridin-3-yl)pyrazolo[1,5-a]pyridin-3-yl)(6-methyl-2,6-diazaspiro[3.3]heptan-2-yl)methanone], the figure is 5 nM. On to `O=C(c1cnn2ccc(-c3c[nH]c4ncccc34)cc12)N1CC2CNCC2C1` (stereo not shown) [Compound 63, (5-(1H-Pyrrolo[2,3-b]pyridin-3-yl)pyrazolo[1,5-a]pyridin-3-yl) (hexahydropyrrolo[3,4-c]pyrrol-2(1H)-yl)methanone], for which the EC50 came out at 5 nM.

With `CN1CC2CN(C(=O)c3cnn4ccc(-c5c[nH]c6ncccc56)cc34)CC2C1` (stereo not shown) [Compound 64, (5-(1H-Pyrrolo[2,3-b]pyridin-3-yl)pyrazolo[1,5-a]pyridin-3-yl)(5-methylhexahydropyrrolo[3,4-c]pyrrol-2(1H)-yl)methanone], the EC50 came out at 6 nM. For the compound `c1cnc2[nH]cc(-c3ccn4nccc4n3)c2c1` [Compound 65, 5-(1H-Pyrrolo[2,3-b]pyridin-3-yl)pyrazolo[1,5-a]pyrimidine], the EC50 is 7 nM.

In the case of `COc1ccc(-c2c[nH]c3ncccc23)cn1` [Compound 67, 3-(6-Methoxypyridin-3-yl)-1H-pyrrolo[2,3-b]pyridine], the EC50 worked out at 19 nM. For `COc1ccc(-c2c[nH]c3ncccc23)nn1` [Compound 69, 3-(6-Methoxypyridazin-3-yl)-1H-pyrrolo[2,3-b]pyridine], the EC50 worked out at 73 nM. The result for `CN1CCC(Nc2cncc(-c3c[nH]c4ncccc34)n2)CC1` [Compound 70, N-(1-Methylpiperidin-4-yl)-6-(1H-pyrrolo[2,3-b]pyridin-3-yl)pyrazin-2-amine] reads 13 nM; that for `CC1(C)COc2ccc(-c3c[nH]c4ncccc34)cc21` [Compound 72, 3-(3,3-Dimethyl-2,3-dihydrobenzofuran-5-yl)-1H-pyrrolo[2,3-b] pyridine], 91 nM. As for `CN1Cc2cc(-c3c[nH]c4ncccc34)ccc2C1=O` [Compound 76, 2-Methyl-5-(1H-pyrrolo[2,3-b]pyridin-3-yl)isoindolin-1-one], the EC50 was 31 nM. As for `O=C1NC2(CCCCC2)c2cc(-c3c[nH]c4ncccc34)ccc21` [Compound 78, 6′-(1H-Pyrrolo[2,3-b]pyridin-3-yl)spiro[cyclohexane-1,1′-isoindolin]-3′-one], the figure is 6 nM; as for `c1cnc2[nH]cc(-c3ccc4c(c3)CCCO4)c2c1` [Compound 79, 3-(Chroman-6-yl)-1H-pyrrolo[2,3-b]pyridine], 24 nM. On to `CC1(C)CC(=O)c2ccc(-c3c[nH]c4ncccc34)cc2O1` [Compound 80, 2,2-Dimethyl-7-(1H-pyrrolo[2,3-b]pyridin-3-yl)chroman-4-one], for which the EC50 was 31 nM. As for `CC1(C)CNC(=O)c2ccc(-c3c[nH]c4ncccc34)cc21` [Compound 82, 4,4-Dimethyl-6-(1H-pyrrolo[2,3-b]pyridin-3-yl)-3,4-dihydroisoquinolin-1(2H)-one], the figure is 6 nM; as for `O=C1CC2(CCNCC2)Oc2cc(-c3c[nH]c4ncccc34)ccc21` [Compound 83, 7-(1H-Pyrrolo[2,3-b]pyridin-3-yl)spiro[chromane-2,4′-piperidin]-4-one], 29 nM; as for `O=C1NCCOc2cc(-c3c[nH]c4ncccc34)ccc21` [Compound 84, 8-(1H-Pyrrolo[2,3-b]pyridin-3-yl)-3,4-dihydrobenzo[f][1,4]oxazepin-5(2H)-one], 3 nM. The result for `CN1CCOc2cc(-c3c[nH]c4ncccc34)ccc2C1=O` [Compound 85, 4-Methyl-8-(1H-pyrrolo[2,3-b]pyridin-3-yl)-3,4-dihydrobenzo[f] [1,4]oxazepin-5(2H)-one] reads 25 nM; that for `O=C1NCCOc2c1ccc(-c1c[nH]c3ncccc13)c2F` [Compound 86, 9-Fluoro-8-(1H-pyrrolo[2,3-b]pyridin-3-yl)-3,4-dihydrobenzo[f] [1,4]oxazepin-5(2H)-one], 7 nM. As for `c1cnc2ccc(-c3c[nH]c4ncccc34)cc2c1` [Compound 87, 6-(1H-Pyrrolo[2,3-b]pyridin-3-yl)quinoline], the EC50 is 2 nM. `O=C(c1ccnc2ccc(-c3c[nH]c4ncccc34)cc12)N1CCNC2(CC2)C1` [Compound 88, (6-(1H-Pyrrolo[2,3-b]pyridin-3-yl)quinolin-4-yl)(4,7-diazaspiro[2.5]octan-7-yl)methanone]: the EC50 came to 3 nM. The result for `CN1CCC(NC(=O)c2ccnc3ccc(-c4c[nH]c5ncccc45)cc23)CC1` [Compound 89, N-(1-Methylpiperidin-4-yl)-6-(1H-pyrrolo[2,3-b]pyridin-3-yl) quinoline-4-carboxamide] reads 1 nM.

Take `c1cnc2[nH]cc(-c3ccc4nccnc4c3)c2c1` [Compound 90, 6-(1H-Pyrrolo[2,3-b]pyridin-3-yl)quinoxaline]: the EC50 stood at 3 nM.

Consider `CN1CCC(Oc2cnc3ccc(-c4c[nH]c5ncccc45)cc3n2)CC1` [Compound 91, 2-((1-Methylpiperidin-4-yl)oxy)-7-(1H-pyrrolo[2,3-b]pyridin-3-yl) quinoxaline], for which the EC50 was 3 nM.
